In US10150737B2, “Compounds for controlling arthropods” (priority 2013, dated 2018):

Tests used:
[1] = logP determination by HPLC on a reversed-phase column (C18); type: physicochemical; details: for logP^a): HPLC-MS method a); for logP: HPLC, C18 reversed phase, acetonitrile/water with formic acid, EEC Directive 79/831 Annex V.A8; for log P: HPLC-MS
Boophilus microplus = Boophilus microplus - injection test; type: in vivo; details: application rate 20 μg/animal; injection into engorged adult female ticks; after 7 days
How it was run: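 Active ingredient in DMSO, 1 μl injected into the abdomen of 5 engorged adult female ticks, then held in a climate-controlled room. Efficacy scored after 7 days from laying of fertile eggs, with non-fertile-looking eggs kept about 42 days for larval hatch; 100% means no fertile eggs.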

Ctenocephalides felis [2] = test: Ctenocephalides felis - oral test; type: in vivo; details: application rate 100 ppm in citrated cattle blood; after 2 days
How it was run: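 Compound in DMSO diluted into citrated cattle blood, fed through a parafilm membrane to about 20 unfed adult cat fleas. Kill in % scored after 2 days (100% = all dead).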

Lucilia cuprina = Lucilia cuprina test; type: in vivo; details: application rate 100 ppm; L1 larvae; after 2 days
How it was run: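 About 20 L1 larvae placed on minced horsemeat treated with compound, formulated in DMSO and diluted with water to test concentration. Kill in % scored after 2 days (100% = all larvae dead, 0% = none).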

Musca domestica = Musca domestica test; type: in vivo; details: application rate 100 ppm; adult houseflies; after 2 days
Protocol: Solvent: dimethyl sulphoxide
To produce an appropriate active ingredient formulation, 10 mg of active ingredient are mixed with 0.5 ml of dimethyl sulphoxide, and the concentrate is diluted with water to the desired concentration.
Vessels containing a sponge treated with sugar solution and the active ingredient formulation of the desired concentration are populated with 10 adult houseflies (Musca domestica).
After 2 days, the kill in % is determined. 100% means that all of the flies have been killed; 0% means that none of the flies have been killed.

Myzus persicae = Myzus persicae - spray test; type: in vivo; details: Chinese cabbage leaf discs, after 6 days
Protocol: Solvent: 78 parts by weight of acetone and 1.5 parts by weight of dimethylformamide
Emulsifier: alkylaryl polyglycol ether
To produce an appropriate active ingredient formulation, 1 part by weight of active ingredient is dissolved using the specified parts by weight of solvent and made up with water containing an emulsifier concentration of 1000 ppm until the desired concentration is attained. To produce further test concentrations, the preparation is diluted with emulsifier-containing water.
Discs of Chinese cabbage leaves (Brassica pekinensis) infested by all stages of the green peach aphid (Myzus persicae) are sprayed with an active ingredient formulation of the desired concentration.
After 6 days, efficacy in % is determined. 100% means that all the aphids have been killed; 0% means that none of the aphids have been killed.

Phaedon cochleariae = Phaedon cochleariae - spray test; type: in vivo; details: larvae on Chinese cabbage leaf discs, after 7 days
How it was run: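 Chinese cabbage leaf discs sprayed with compound formulated in acetone/DMF and water containing 1000 ppm emulsifier; once dry, infested with mustard beetle larvae. Efficacy (% larvae killed) scored after 7 days.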

Spodoptera frugiperda = Spodoptera frugiperda - spray test; type: in vivo; details: caterpillars on maize leaf discs, after 7 days
How it was run: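 Maize leaf discs sprayed with compound formulated in acetone/DMF and diluted in water containing 1000 ppm alkylaryl polyglycol ether emulsifier, then infested with armyworm caterpillars after drying. Efficacy scored after 7 days as % caterpillars killed (100% all, 0% none).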

Tetranychus urticae = Tetranychus urticae - spray test, OP-resistant; type: in vivo; details: bean leaf discs, after 6 days
How it was run: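 Compound dissolved in acetone/DMF, diluted with water containing 1000 ppm alkylaryl polyglycol ether emulsifier to test concentrations. Bean leaf discs infested with all stages of spider mites were sprayed; % kill determined after 6 days (100% = all mites dead, 0% = none).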

Ctenocephalides felis [3] = test: Ctenocephalides felis - in vitro contact tests with adult cat fleas; type: in vivo; details: application rate 5 μg/cm2 (=500 g/ha); after 48 h; fleas dead or moribund
Protocol: For the coating of the test tubes, 9 mg of active ingredient are first dissolved in 1 ml of acetone p.a. and then diluted to the desired concentration with acetone p.a. 250 μl of the solution are distributed homogeneously on the inner walls and base of a 25 ml test tube by turning and rocking on an orbital shaker (rocking rotation at 30 rpm for 2 h). With 900 ppm active ingredient solution and internal surface area 44.7 cm^2, given homogeneous distribution, an area-based dose of 5 μg/cm^2 is achieved.
After the solvent has evaporated off, the tubes are populated with 5-10 adult cat fleas (Ctenocephalides felis), sealed with a perforated plastic lid and incubated in a horizontal position at room temperature and ambient humidity. After 48 h, efficacy is determined. To this end, the test tubes are stood upright and the fleas are knocked to the base of the tube. Fleas which remain motionless at the base or move in an uncoordinated manner are considered to be dead or moribund.
100% efficacy means that all the fleas were dead or moribund. 0% efficacy means that no fleas were harmed.

[4] = reversed-phase column (C18), Table I-T3

Row | SMILES | logP^a) [1] | logP^a) [1, 4] | efficacy (laying of fertile eggs) (Boophilus microplus) | efficacy (kill) (Ctenocephalides felis [2]) | efficacy (kill) (Lucilia cuprina) | efficacy (kill) (Musca domestica) | efficacy (Myzus persicae; application rate 500 g/ha) | efficacy (Phaedon cochleariae; application rate 500 g/ha) | efficacy (Spodoptera frugiperda; application rate 500 g/ha) | efficacy (Tetranychus urticae; application rate 500 g/ha) | efficacy (Ctenocephalides felis [3]) | efficacy (Phaedon cochleariae; application rate 100 g/ha) | efficacy (Spodoptera frugiperda; application rate 100 g/ha) | efficacy (Tetranychus urticae; application rate 100 g/ha) | logP [1] | logP^a) ([1]; reversed-phase column (C18)) | log P [1, 4] | efficacy (Myzus persicae; application rate 100 g/ha)
1 | Cc1cc(C(F)(C(F)(F)F)C(F)(F)F)cc(C)c1-n1cc(-c2cncc(C(=O)NC3(C#N)CC3)c2)cn1 [I-T3-8] | 3.4 | 3.4 | 100% | 100% | 100% | 100% | 90% | 100% | 100% | 100% |  |  |  |  |  |  |  | 
2 | Cc1cc(C(F)(C(F)(F)F)C(F)(F)F)cc(C)c1-n1cc(-c2cccc(C(=O)NC3CC3)c2F)cn1 [I-T3-9] | 4.3 | 4.3 | 100% | 100% | 100% |  |  | 100% | 100% | 100% | 100% |  |  |  |  |  |  | 
3 | Cc1cc(C(F)(C(F)(F)F)C(F)(F)F)cc(C(F)(F)F)c1-n1cc(-c2ccc(Cl)c(C(=O)NCC(F)(F)F)c2)cn1 [I-T3-84] | 4.7 | 4.7 | 100% | 100% | 100% | 100% |  |  |  |  | 100% | 100% | 100% | 100% |  |  |  | 
4 | Cc1cc(C(F)(C(F)(F)F)C(F)(F)F)cc(C)c1-c1cc(-c2ccc(Cl)c(C(=O)NCC(F)(F)F)c2)on1 [I-T22-3] |  |  | 100% | 100% | 100% | 100% |  |  |  |  | 100% | 100% | 100% | 90% | 5 |  |  | 
5 | CNc1ncc(-c2cnn(-c3c(Cl)cc(C(F)(C(F)(F)F)C(F)(F)F)cc3Cl)c2)cc1C(=O)NC1CC1 [I-T3-136] |  |  | 100% | 100% | 100% | 100% |  |  |  |  | 100% | 100% | 100% |  |  | 3.5 | 3.5 | 
6 | N#CC1(NC(=O)c2cc(-c3cc(-c4c(Cl)cc(C(F)(C(F)(F)F)C(F)(F)F)cc4Cl)on3)ccc2Cl)CC1 [I-T23-2] |  |  | 100% | 100% | 100% | 100% |  | 100% | 100% | 100% | 100% |  |  |  | 4.8 |  |  | 
7 | O=C(NC1CC1)c1cc(-c2cnn(-c3c(F)cc(C(F)(F)F)cc3Cl)c2)ccc1Cl [I-T3-186] |  |  |  |  |  |  | 90% | 100% | 100% | 100% |  |  |  |  |  |  | 3.6 | 
8 | O=C(NC1CC1)c1cc(-c2cnn(-c3ccc(C(F)(C(F)(F)F)C(F)(F)F)cc3Cl)c2)ccc1Cl [I-T3-31] | 4.3 | 4.3 | 100% | 100% | 100% | 100% |  | 100% | 100% | 100% | 100% |  |  |  |  |  |  | 
9 | N#CC1(NC(=O)c2cc(-c3cnn(-c4c(F)cc(C(F)(F)F)cc4Cl)c3)ccc2Cl)CC1 [I-T3-187] |  |  |  |  |  |  | 100% | 100% | 100% | 100% |  |  |  |  |  |  | 3.3 | 
10 | O=C(NC1CC1)c1cc(-c2cnn(-c3c(Cl)cc(C(F)(C(F)(F)F)C(F)(F)F)cc3Cl)c2)cnc1NC1CC1 [I-T3-137] |  |  | 100% | 100% | 80% | 100% |  |  |  |  | 100% | 100% | 100% | 90% |  | 3.4 | 3.4 | 
11 | O=C(NC1CC1)c1cccc(-c2cnn(-c3ncc(C(F)(F)F)cc3Cl)c2)c1 [I-T3-122] |  |  |  |  |  |  | 100% |  |  |  |  |  |  |  |  | 3.0 | 3.0 | 
12 | CCSc1cc(C(F)(F)F)cc(Cl)c1-n1cc(-c2ccc(Cl)c(C(=O)NC3(C#N)CC3)c2)cn1 [I-T3-170] |  |  |  |  |  |  |  |  |  |  |  | 100% | 100% | 100% |  |  | 3.7 | 100%
13 | Cc1cc(C(F)(C(F)(F)F)C(F)(F)F)cc(C)c1-n1cc(-c2cc(C(=O)NC3(C#N)CC3)c(Cl)cc2F)cn1 [I-T3-17] | 4.4 | 4.4 | 100% | 95% | 100% |  |  | 100% | 100% |  | 100% |  |  |  |  |  |  | 
14 | N#Cc1cc(C(F)(F)F)cc(Cl)c1-n1cc(-c2ccc(Cl)c(C(=O)NC3CC3)c2)cn1 [I-T3-174] |  |  |  |  |  |  |  |  |  |  |  | 100% | 100% | 100% |  |  | 3.1 | 100%
15 | CC[S+]([O-])c1cc(C(F)(F)F)cc(Cl)c1-n1cc(-c2ccc(Cl)c(C(=O)NC3CC3)c2)cn1 (stereo not drawn) [I-T3-179] |  |  |  |  |  |  |  |  |  |  |  | 100% |  | 100% |  |  | 3.0 | 100%
